# According to patent US20220096515A1, “Methods and Formulations for Preventing Neurological or Psychiatric Disorders” (Huntington Medical Research Institutes, priority 2020, published 2022):
# Columns and labels:
# [1] = test system: Daxx; assay: Daxx mRNA and protein levels in endothelial cells after prenatal treatment; assay type: in vivo, mouse
# Protocol: Primary culture of endothelial cells and endothelial cell staining: Embryonic brains were dissected under a stereo-microscope, after the NAD^+ treatment paradigm and the telencephalon was removed. Pial membranes were peeled off. Telencephalon without pial membranes from the periventricular region was pooled. Purity of endothelial cell cultures was established with endothelial cell markers and determined to be one hundred percent. Isolation and culture of endothelial cells were performed according to published methodology. Periventricular endothelial cells were prepared from CD1 (wild type), saline-treated Gabrb3^fl/fl, saline-treated Gabrb3^ECKO, and NAD^+-treated Gabrb3^ECKO embryos. Endothelial cells were labeled with anti-biotinylated isolectinB4 (1:100, Sigma), anti-GABA (1:400, Sigma), anti-DAXX (1:100, Santa Cruz Biotechnology) and anti-P2X4 (1:100, Abclonal) followed by secondary detection with AlexaFluor conjugates (Invitrogen). DAPI (Invitrogen) was used to label nuclei. Images were taken on an FSX100 microscope (Olympus). 1 million cells were examined for each immunohistochemistry condition.
# Quantitative real-time PCR: RT was performed by using iScript Reverse Transcription Supermix kit (Bio-Rad). […] The relative gene expression and subsequent fold changes among different samples were determined according to published methodology. […]
# [2] = test system: GABAergic neurons isolated at E18 from Gabrb3^ECKO; assay: In vitro neuronal migration assay after in vivo NAD+ treatment paradigm; assay type: cell-based, mouse; conditions: neurons isolated at E18 after in vivo treatment E12-E17
# Protocol: Isolation and primary culture of neuronal cells: Primary culture of embryonic GABAergic neurons from CD1 telencephalon or after the saline or NAD+ treatment paradigms were performed using established methods. Briefly, embryonic brains were extracted under a stereo microscope and placed into cold PBS. After removal of the pial membrane, the telencephalon was dissected from each embryonic brain. The telencephalon was minced into 1-2 mm slices in cold PBS. Minced telencephalon was treated with 0.1× trypsin/EDTA at 37° C. for 5 min. Trypsin treatment was stopped by adding FBS-DMEM media and DNase I consecutively. […]
# Neuronal migration assay: In preparation for cell migration assays, one well square culture inserts (ibidi GmbH) were placed in the center of a poly-Ornithine/Laminin coated 35 mm dish, to make a small rectangular patch that is labeled outside the dish. […] Neuronal migration was assessed by measuring the distance between the final positions of cells from the border of the rectangular patch was outlined on the first day, using ImageJ software.
# To test if the prenatal NAD^+ treatment was able to influence GABAergic neuronal migration, an in vitro neuronal migration assay was performed (FIG. 6M), after the in vivo NAD^+ treatment paradigm (E12-E17). […] Images of GFP^+ cells that had entered the dorsal telencephalon at E18 were collected and analyzed. […]
# [3] = test system: P2X4; assay: P2X4 mRNA and protein expression in endothelial cells after prenatal treatment; assay type: in vivo, mouse; conditions: after six-day treatment paradigm
# Protocol: Primary culture of endothelial cells and endothelial cell staining: Embryonic brains were dissected under a stereo-microscope, after the NAD^+ treatment paradigm and the telencephalon was removed. Pial membranes were peeled off. Telencephalon without pial membranes from the periventricular region was pooled. Purity of endothelial cell cultures was established with endothelial cell markers and determined to be one hundred percent. Isolation and culture of endothelial cells were performed according to published methodology. Periventricular endothelial cells were prepared from CD1 (wild type), saline-treated Gabrb3^fl/fl, saline-treated Gabrb3^ECKO, and NAD^+-treated Gabrb3^ECKO embryos. […]
# Quantitative real-time PCR: RT was performed by using iScript Reverse Transcription Supermix kit (Bio-Rad). […] The relative gene expression and subsequent fold changes among different samples were determined according to published methodology.
# An important aspect that influences endothelial cell proliferation is Ca^2+ influx, which is important for cell cycle progression in the neocortex. […] Therefore, P2X4 expression at both mRNA and protein levels in periventricular endothelial cells were evaluated, prepared after the six-day saline and NAD^+ treatment paradigm (FIGS. 11J-11O). […]
smiles,measurement,setting,value
NC(=O)c1ccc[n+]([C@@H]2O[C@H](COP(=O)([O-])OP(=O)(O)OC[C@H]3O[C@@H](n4cnc5c(N)ncnc54)[C@H](O)[C@@H]3O)[C@@H](O)[C@H]2O)c1 [NAD^+],Daxx mRNA and DAXX protein levels,[1],normalize DAXX levels
same,migration of β-Tubulin^+ neurons (cell number and distance),[2],migrated robustly
same,P2X4 mRNA and protein expression,[3],its expression was rescued
